Measured values reported in the METLIN SMRT retention time set (Domingo-Almenara et al. 2019).

Assay: gradient 5% acetonitrile 3 min, to 50% in 2 min, to 85% in 15 min, held 3 min, 100 µL/min
Conditions: column: Zorbax Extend-C18 2.1 x 50 mm; eluents: water / acetonitrile, 0.1% formic acid
Summary of the method: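 Using water and acetonitrile that each contained 0.1% formic acid, mixtures of ~100 pure standards were separated at 100 μL/min on a Zorbax Extend-C18 column (2.1 × 50 mm, 1.8 μm). The HPLC fed a quadrupole time-of-flight mass spectrometer working in positive and negative ionization mode, with dead and dwell volumes of 40 μL and 900 μL. Data were acquired over 3 months. Retention time was read from computationally picked adduct peaks after manual inspection of each.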

In the case of `CC(C)Cn1cc(CCNS(=O)(=O)c2cccc(Br)c2)c2cccnc21`, the RP-LC retention time is reported as 990 s.

`CN1CCn2cc(S(=O)(=O)Nc3cc(F)cc(F)c3)cc2C1=O` gave an RP-LC retention time of 727 s.

With `COc1ccc2sc(OC3CCN(C(=O)c4cnn(-c5ccccc5)n4)CC3)nc2c1` the RP-LC retention time was 1140 s.

For `COc1cc(C(=O)Nc2nc3c(s2)CCc2ccccc2-3)cc(OC)c1OC`, the RP-LC retention time was 1110 s.

In the case of `O=C(Nc1cc(-c2ccccn2)no1)C1CC1`, the RP-LC retention time is reported as 668 s.

Compound `NNC(=O)c1nnsc1-c1csnn1` has an RP-LC retention time of 657 s.

For `Cc1noc(C)c1S(=O)(=O)NCC1CCN(C(=O)c2cccn(C)c2=O)CC1`, the RP-LC retention time was 599 s.

`CCCN(CCC)[C@@H]1CCc2c(OC)cccc2[C@@H]1C` gave an RP-LC retention time of 802 s.

For `COCCNC(=O)N1CCCN(C2=NS(=O)(=O)C(c3cccc(Cl)c3)=C2C)CC1`, the RP-LC retention time was 706 s.

With `O=C(Cn1cccc(S(=O)(=O)N2CCCCCC2)c1=O)N1CCCc2ccccc21` the RP-LC retention time was 850 s.

`COc1ccc(CN2CCNCC2)c(OC)c1OC` showed an RP-LC retention time of 578 s.

With `Cc1ccc(CNC(=O)c2ccc3c(c2)nc2n3CCCCC2)o1` the RP-LC retention time was 619 s.

Work on `Cc1cccc(N2CCN(C(=O)C3c4ccccc4CCN3C(=O)C3CC3)CC2)c1C` (configuration not stated) yielded an RP-LC retention time of 1080 s.

Work on `O=C(Cn1cnc2ccccc2c1=O)NC1CC1` yielded an RP-LC retention time of 596 s.

`COC(=O)C1=CN(c2cc(Cl)ccc2OC)c2cc(F)ccc2S1(=O)=O` showed an RP-LC retention time of 909 s.

For `CCCNC(=O)C1CCCN(c2ccc(SCC(=O)Nc3ccc(OC)c(Cl)c3)nn2)C1` (configuration not stated), the RP-LC retention time was 688 s.

For `O=C(c1ccc(-c2ccc([N+](=O)[O-])cc2Cl)o1)N1CCOCC1`, the RP-LC retention time was 778 s.

Compound `CC1=C(c2ccc(F)cc2)S(=O)(=O)N=C1N1CCCN(C(=O)NC(C)C)CC1` has an RP-LC retention time of 746 s.

With `Cc1ccc(-c2noc(-c3ccccc3S(=O)(=O)NCCC(C)C)n2)cc1` the RP-LC retention time was 1330 s.

Work on `COC(=O)c1ccc2c(=O)n(-c3ccc4c(c3)OCO4)c(N3CCCC3)nc2c1` yielded an RP-LC retention time of 885 s.

With `CCc1ccc(NC(=O)N2CCc3nc(-c4ccc(Cl)cc4)ncc3C2)cc1` the RP-LC retention time was 1150 s.

`C=Cc1ccc(Cn2nc3ccc(S(=O)(=O)N4CCC(C)CC4)cn3c2=O)cc1` gave an RP-LC retention time of 1060 s.

Work on `O=S(=O)(c1ccccc1Cl)N1CCN(Cc2cccc(F)c2)C2(CCOCC2)C1` yielded an RP-LC retention time of 846 s.

For `CCOC(=O)c1cnc2nc(C)ccc2c1Nc1cc(Cl)ccc1F`, the RP-LC retention time was 774 s.

For `CS(=O)(=O)N1CCCN(C(=O)c2ccccc2F)CC1`, the RP-LC retention time was 651 s.

`CS(=O)(=O)N1CCC(C(=O)Nc2cccc(C(F)(F)F)c2)Oc2ccccc21` (configuration not stated) gave an RP-LC retention time of 972 s.

In the case of `O=C(c1nnn(-c2ccc(Cl)cc2)c1-c1cccnc1)N1CCSCC1`, the RP-LC retention time is reported as 780 s.

Compound `O=C(CN1C(=O)CCS(=O)(=O)c2ccccc21)Nc1ccc(F)cc1` has an RP-LC retention time of 748 s.

`COc1c(C)cnc(Cn2cnc3c(Cl)nc(N)nc32)c1C` showed an RP-LC retention time of 638 s.

With `O=C(Nc1cccc(-c2cn3cccnc3n2)c1)c1c(F)cccc1F` the RP-LC retention time was 668 s.

Work on `COc1ccc(OC)c(CNC(=O)c2c(C)sc3ccn(C)c(=O)c23)c1` yielded an RP-LC retention time of 688 s.

`O=C1NC2(CCN(C(=O)NCCc3ccccc3)CC2)Nc2cc(Cl)ccc21` gave an RP-LC retention time of 766 s.

For `O=C(NCCc1c[nH]c2ccc(Cl)cc12)c1cccc(NC(=O)c2nnc(C3CC3)s2)c1`, the RP-LC retention time was 928 s.

For `CC(C)NC(=O)C1=CCN(C(=O)c2ccc(F)cc2)CC1`, the RP-LC retention time was 714 s.

Work on `O=C(Nc1cccc(OCc2nnc(-c3ccc(Cl)cc3)o2)c1)c1ccsc1` yielded an RP-LC retention time of 1010 s.

In the case of `Cc1cccc(NC(=O)c2[nH]c(C)c(S(=O)(=O)N3CCCC3)c2C)c1C`, the RP-LC retention time is reported as 858 s.

In the case of `Clc1ccc(Sc2c(-c3ccccc3)nc3ncccn23)cc1`, the RP-LC retention time is reported as 1030 s.

`Cc1ccc(NC(=O)C2CCN(C(=O)c3ncn4c3COC(c3ccc(F)cc3)C4)CC2)cc1F` (configuration not stated) gave an RP-LC retention time of 854 s.

`CSc1ccc(-c2noc(Cn3ncn4nc(-c5ccccc5Cl)cc4c3=O)n2)cc1` gave an RP-LC retention time of 1200 s.

`CCn1nc(C)cc1C(=O)Nc1nc(-c2cccs2)cs1` showed an RP-LC retention time of 903 s.

In the case of `CC(C)c1cc(C(=O)Nc2ccc(F)c(Cl)c2)nn1C1CCS(=O)(=O)C1` (configuration not stated), the RP-LC retention time is reported as 997 s.

For `O=C(Nc1ccc(N2CCN(c3ccccc3)C2=O)nc1)c1ccc(F)cc1`, the RP-LC retention time was 934 s.

For `CC1=C(c2ccc(C)c(C)c2)S(=O)(=O)N=C1N1CCCN(C(=O)c2ccsc2)CC1`, the RP-LC retention time was 858 s.

For `Cc1ccc(CCNC(=O)C2CCN(S(=O)(=O)c3ccc4c(c3)CCCC(=O)N4)CC2)cc1`, the RP-LC retention time was 781 s.

In the case of `O=C(O)c1cc(NS(=O)(=O)c2cccc(F)c2)ccc1N1CCCC(CN2CCCC2)C1` (configuration not stated), the RP-LC retention time is reported as 594 s.

With `CCCn1nnc2cc(-c3noc(C4CC(=O)N(c5ccccc5)C4)n3)ccc21` (configuration not stated) the RP-LC retention time was 930 s.

`CCCS(=O)(=O)NCc1ccc2c(c1)CCN2C(=O)CC` gave an RP-LC retention time of 686 s.

Compound `Cc1ccc(-c2nnc(SCc3cc(=O)n4oc(C)cc4n3)o2)cc1` has an RP-LC retention time of 759 s.

Work on `CC1CCCN(S(=O)(=O)c2ccc(-n3cnc(C(=O)N4CCCC4)c3)nc2)C1` (configuration not stated) yielded an RP-LC retention time of 817 s.

`O=C(CSc1ccc(F)cc1)NCC1CCN(Cc2cccs2)CC1` gave an RP-LC retention time of 566 s.

For `C=CCNC(=O)Cc1nnc2cc(-c3nc(C4CC4)no3)ccn12`, the RP-LC retention time was 662 s.

`O=C(COc1ccc(Cl)cc1)N1CC(n2cnnc2C2CC2)C1` gave an RP-LC retention time of 675 s.

`Cc1ccc(NC(=O)Cn2nc3c(Oc4cccc(F)c4)nccn3c2=O)cc1F` showed an RP-LC retention time of 894 s.

`Cc1cccc(NC(=O)NCC2CCOCC2)c1C` gave an RP-LC retention time of 704 s.

Compound `CN1C(=O)CCc2cc(NS(=O)(=O)Cc3ccc(Cl)cc3)ccc21` has an RP-LC retention time of 788 s.

`O=C(CC1Sc2ccc(C(F)(F)F)cc2NC1=O)Nc1cccc(Cl)c1Cl` (configuration not stated) gave an RP-LC retention time of 993 s.

`CCN1CCCC1CNC(=O)CC1CCN(S(=O)(=O)c2ccc3c(c2)CCN3C(C)=O)CC1` (configuration not stated) gave an RP-LC retention time of 597 s.

Compound `Cc1c(C(=O)N2CCN(c3ccccn3)CC2)oc2ccc3c(c12)C(=O)CC1(CCCCCC1)O3` has an RP-LC retention time of 879 s.

In the case of `Cc1cc(NC(=O)Cn2cnc(-c3cccs3)cc2=O)sn1`, the RP-LC retention time is reported as 654 s.

Work on `O=C(c1ccccc1OCC1CCCN(C2CCC3(CC2)OCCO3)C1)N1CCCC1` (configuration not stated) yielded an RP-LC retention time of 622 s.

`Cc1ccc(NC(=O)NCCCn2c(C(F)(F)F)nc3cccnc32)cc1F` gave an RP-LC retention time of 866 s.

`O=C(c1ccc(Cn2c(=O)c3cccn3c3cccnc32)o1)N1CCN(c2ccccn2)CC1` showed an RP-LC retention time of 615 s.

Compound `Cc1c(Cl)cccc1NC(=O)C(=O)NCc1ccsc1` has an RP-LC retention time of 943 s.

Work on `CCNC(=O)N1CCCC(c2cccc(C(=O)NCc3ccc(C(F)(F)F)cc3)c2)C1` (configuration not stated) yielded an RP-LC retention time of 896 s.

With `CCOc1ccccc1NC(=O)C1CCN(S(=O)(=O)c2cn(C)cn2)CC1` the RP-LC retention time was 868 s.

`COc1cccc(N2CCN(CC(O)c3ccc4c(c3)OCO4)CC2)c1` (configuration not stated) gave an RP-LC retention time of 640 s.

`CCOC(=O)c1cn(CC(=O)Nc2cc(F)ccc2F)nn1` gave an RP-LC retention time of 740 s.
